Results: patent publication US20180009764A1, “METHOD FOR TREATING MACROPHAGE MIGRATION INHIBITORY FACTOR (MIF)-IMPLICATED DISEASES AND CONDITIONS WITH IODO PYRIMIDINE DERIVATIVES” (UNIVERSITY OF LOUISVILLE RESEARCH FOUNDATION, INC., priority 2009, published 2018)
≈ marks a conversion by molar mass, not a printed value.

Tests used:
[1] = test system: primary human T lymphocytes; assay: Anti-CD3 induced T lymphocyte activation/proliferation (flow cytometry); type: cell-based; conditions: 25 μM
Description: In order to assess the ability of MIF antagonists to disrupt autoimmune-associated T cell activation, primary human T lymphocytes were prepared using standard Ficoll-gradient preparations. 1×10^6 lymphocytes/ml were resuspended in RPMI/10% FCS and plated onto anti-CD3 antibodies previously immobilized onto tissue culture plates. Control, vehicle control (0.1% DMSO), 25 μM 4-IPP or 25 μM ACT-003 were added to cells and allowed to incubate for 48 hours. Cells were lifted, washed and stained with anti-CD4 or anti-CD8 antibodies and then analyzed by flow cytometry.
To validate the effects of MIF antagonists on T lymphocyte activation, experiments were set up exactly as described above and, 48 hours later, treated and untreated lymphocytes were stained with an anti-CD25 antibody. CD25 is also known as the high affinity IL-2 receptor—a very well characterized and frequently marker of T lymphocyte activation.
In order to investigate the relative kinetics of when 4-IPP and ACT-003 are acting in blocking T lymphocyte activation, we repeated the experiment described above but harvested lymphocytes only 16 hours after anti-CD3 plating. At this early time point during T lymphocyte activation, CD69 is found to be expressed and is usually considered to be an “early marker” of lymphocyte activation.
Finally, to confirm that proliferation of CD4+ and CD8+ T lymphocytes is blocked by 4-IPP-based MIF antagonists, we repeated the experiment as described above, added labeled-BrdU to cells, stained with either labeled anti-CD4 or anti-CD8 antibodies and then assessed relative CD4/CD8 and BrdU labeling in each treatment group.

MIF [2] = target: T1, MIF (Homo sapiens, UniProt P14174); assay: MIF cell lysate enzymatic inhibition; type: biochemical; conditions: cell lysates
T1 construct: the enzymatic activity of MIF present in cell lysates; endogenous in cells
T1 sequence (P14174 2-115 limits assumed): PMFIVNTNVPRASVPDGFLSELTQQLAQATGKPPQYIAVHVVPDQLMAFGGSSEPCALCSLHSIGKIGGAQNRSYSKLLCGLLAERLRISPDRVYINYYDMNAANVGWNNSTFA
Description: Normal or transformed cell lysates can be used to determine the concentration inhibiting the enzymatic activity of MIF present in cell lysates. Cells are cultured in the appropriate media to the required number of cells, collected, and lysed. Compounds to be characterized are solubilized in DMSO and serial dilutions are performed in order to obtain a range of concentrations including complete and no quantifiable inhibition.

MIF [3] = target: T2, MIF (Mus musculus, UniProt P34884); assay: MIF liver lysates enzymatic activity ex vivo (L-dopachrome tautomerase); conditions: mice; IP 1 mg in corn oil every day for 3 days; livers 6 hours after last injection; FIG. 1
T2 construct: from tissue; host or cells: mouse liver (A7); liver, lung and brain of C57BL6 mice (A20)
Description: This experiment, using an ex-vivo approach and the tautomeric reaction of L-dopachrom, was designed to ascertain the level of inhibition of MIF following administration of the compounds of this invention via oral, IV, IP or any other route of administration. Mice were used in the example illustrated below, but other animals could be used as well. Groups of 3 mice were administered IP 1 mg of 4-IPP and ACT-002 resuspended in 100 μl of corn oil every day for 3 days. Mice were sacrificed 6 hours after the last injection and livers were harvested. ˜1 gram pieces of liver were lysed in PBS containing 1 mM NaVO4, 2 mM NaF and a protease inhibitor cocktail (Roche Biochemical, Indianapolis, Ind.) using dounce-homogenization on ice. 500 μg of liver lysates were added to a final volume of 700 μl PBS in plastic cuvettes. 4 mM L-3, 4-dihydroxyphenylalanine methyl ester and 8 mM sodium periodate (Sigma-Aldrich) were combined in a 3:2 ratio to form L-dopachrome methyl ester. 300 μL of L-dopachrome methyl ester was then immediately added to the cuvettes; the OD475 nm was measured 2 min and 4 min after addition of the L-dopachrome.

MIF [4] = target: T2, MIF; assay: Oral bioavailability: ex vivo MIF enzymatic activity in liver, brain and lung after IP and PO dosing; parameters: species or system C57BL6 mice
Description: The compounds were administered orally (PO) and intraperitoneally (IP) to healthy animals. The inhibition of the MIF liver enzymatic activity determined ex vivo following IP and PO dosing is similar, indicating high oral bioavailability. Furthermore, brain and lung tissues were collected and processed to determine MIF enzymatic activity in these organs. […] Inhibition of MIF enzyme was determined […] following dosing of MIF-002 at 40 mg/kg once a day for three days, both IP and PO (normal C57BL6 mice, n=3). Tissues were collected at sacrifice and processed. Liver, lung, and brain tissues were collected, processed, and used for the determination of MIF enzyme activity. Values are expressed as a percentage calculated using DMSO as control (no inhibition).
Two additional compounds were tested, MIF-035 and MIF-041.

p53 = p53 up regulation, p53 luciferase assay; type: cell-based; conditions: 10 μM; FIG. 5
Description: The up regulation of p53 was determined using a commercially available p53 luciferase assay kit. 1×10^5 cells/ml were plated in a 24 well plate and allowed to adhere overnight. MIF antagonists were added to the cells at the indicated concentrations for 16 hours and transiently co-transfected with 0.125 μg/well of p53-responsive luciferase promoter plasmid (Promega, Madison, Wis.) together with 0.0125 μg/well Renilla pRL-null plasmid (Promega) using Lipofectamine (Invitrogen) transfection reagent. After 24 hrs, Firefly and Renilla luciferase activities were measured by the Dual Luciferase Reporter Assay System (Promega, Madison, Wis.) on a TD-20/20 luminometer (Turner Designs).

[5] = Microsomal stability in human liver microsomes; type: in vitro ADME
Description: Stability in human liver microsomes was tested over […] at 37° C. using pooled mixed gender human liver microsomes. Liver microsomes were prepared at 1.0 mg/ml of microsomal protein in a 100 mM potassium phosphate pH 7.4 buffer with 1 mM NADPH. The media was incubated at 37° C. with the compound in solution in DMSO. The concentration of the compound was followed by LC/MS-MS as a function of time. Samples were assayed at t=0, 30, 60 and 120 minutes. Testosterone was used as a positive control. The same experiment was performed with mouse liver microsomes instead of human liver microsomes.

Du 145 = assay: Inhibition of tumor cells proliferation (CellTiter Glo); type: cell-based; conditions: Homo sapiens, 72 hours
Description: Inhibition of the proliferation of tumor cells was investigated in vitro in several tumor cell lines. Cells of the desired tumor cell line were plated at 2×10^5 cells/ml in 96 well plates. Twice the indicated concentrations of the compounds of the invention were added to cells the following day in an equal volume of media. 72 hours later, cells were lysed and subjected to ATP determination using the CellTiter Glo-Luminescent Cell Viability Assay kit (Promega, Madison, Wis.). Experiments were done in triplicate. Results for the inhibition of cells proliferation are reported as IC50 (the concentration leading to a 50% inhibition of proliferation of the cell population) and are listed in Table 6. FIGS. 3 and 4 show bar graphs comparing the IC50s of specific embodiments of compounds of the invention across multiple tumor cell lines.

[6] = Caco-2 cell permeability and transport; type: in vitro ADME; parameters: Caco-2 Permeability Papp B-A / Caco-2 Permeability Papp A-B: unit not given here; conditions: human, Caco-2, pH 7.4
Description: (§1) Cell permeability and transport mechanisms in Caco-2 and MDR1-MDCK monolayers experiments were performed in triplicate in the apical-to-basolateral and basolateral-to-apical direction using […]® wells containing either Caco-2 or MDR1-MDCK monolayers. A modified Hanks buffer pH 7.4 was used in both reservoir and receiver wells with the addition of 1% BSA in the receiver side. Confluent monolayers were used and their integrity was verified using reference compounds (Atenolol as a low permeability reference compound and Propanolol as a high permeability reference compound). A sample in the basolateral and apical sides was taken after 2 hours and the concentration measured by LC/MS-MS.

Caco-2 monolayers = assay: Caco-2 cell permeability and transport; type: in vitro ADME; parameters: Caco-2 Permeability Papp B-A / Caco-2 Permeability Papp A-B: unit not given here
Description: as §1

[7] = test system: Chick Chorioallantoic Membrane (CAM); assay: CAM assay with matrigel plugs; type: in vivo
Description: 8 groups with 10 embryos in each group were used in the experiment described below. Fresh fertile eggs were incubated for 3 days in a standard egg incubator at 37° C. for 3 days. On Day 3, eggs were cracked under sterile conditions and embryos were placed into 20×100 mm plastic plates and cultivated at 37° C. in an embryo incubator with a water reservoir on the bottom shelf. Air was continuously bubbled into the water reservoir using a small pump so that the humidity in the incubator is kept constant. On Day 6, a sterile silicon “o” ring was placed on each CAM and test compound dissolved in 0.5% methylcellulose was placed into each “o” ring in a sterile hood. Paclitaxel was used as a positive control. Embryos were returned to the incubator after addition of test material. Control embryos received 10 μL of vehicle alone. On Day 8, embryos were removed from the incubator and kept at room temperature while blood vessel density were determined under each “o” ring using an image capturing system at a magnification of 160×. The blood vessel density was measured using an angiogenesis scoring system in that arithmetic numbers 0 to 5 (or exponential numbers 1 to 32) are used to indicate number of blood vessels present at the treatment sites on the CAM. Number 5 represents the highest density and 0 represents no angiogenesis. The percent of inhibition at each dosing site was calculated using the score recorded for that site divided by the mean score obtained from the appropriate control samples for each individual experiment. The percent of inhibition for each dose of a given compound was calculated by pooling all results obtained for that dose from 8-10 embryos.
Another experiment was performed using a protocol similar to the one described above but using matrigel plugs instead of o ring to deliver the test material to the CAM. Results are summarized in Table 9 below and show a statistically significant inhibition of angiogenesis at the high concentrations of test material.

LOX-IMV1 tumor cell line = assay: Inhibition of cell migration (Oris Cell Migration Assay); type: cell-based; conditions: 72 hrs, even at low concentrations (0.03 μM), FIG. 7
Description: The LOX-IMV1 tumor cell line was used to determine the inhibition of cell migration using the Oris Cell Migration Assay kit (Promega, Mich.). Briefly, adherent cells were seeded into each well of the kit according to kit instructions. Concentrations of cells in the migration zone were determined to calculate IC50 values. Prior to the migration assay, cell proliferation IC50s were determined to differentiate between inhibition of proliferation and migration. […] A slightly modified method was also used to determine the inhibition of invasion.

[8] = Solubility in varying solvents; type: physicochemical; conditions: 21 °C, 20-22° C.
[9] = Microsomal stability in human liver microsomes; type: in vitro ADME; conditions: 15 min; 37° C.; 1 mM NADPH

## Ic1cc(-c2ccccc2)ncn1 [4-IPP, 4-iodo-6-phenylpyrimidine, reference compound]
[1]; 16 hours, FIGS. 17 and 18
  CD69 expression: only a marginal effect on CD69 expression
[1]; 48 hours, FIGS. 13 and 14
  CD4 and CD8 T lymphocytes after anti-CD3 activation: significantly fewer CD4 and CD8 T lymphocytes
[1]; 48 hours, FIGS. 15 and 16
  Anti-CD3-induced CD25 expression: almost completely blocked the anti-CD3-induced CD25 expression
[1]; 48 hours, FIGS. 19 and 20
  BrdU labeling of CD8+ and CD4+ T lymphocytes (proliferation): almost completely blocked BrdU labeling in both CD8+ and CD4+ T lymphocytes
MIF [2]
  IC50: > 2 µM
MIF [3]
  MIF liver enzyme inhibition: significant in vivo inhibition of MIF

## NC(=O)c1cccc(-c2cc(I)ncn2)c1 [ACT-MIF-035, 4-Iodo-6-(3-aminocarbonylphenyl)pyrimidine]
MIF [4]; judged from ex vivo MIF inhibition after IP and PO dosing
  Oral bioavailability: orally bioavailable
MIF [4]; judged from ex vivo MIF inhibition in brain
  Crossing of the blood brain barrier: crossed the blood brain barrier
p53
  p53 regulation: implicated in p53 regulation
[5]; both, human, microsomes, 0 h, pH 7.4
  Metabolic Stability in Human Microsomes % Remaining: 100%
[5]; both, human, microsomes, 1 h, pH 7.4
  Metabolic Stability in Human Microsomes % Remaining: 92%
MIF [2]
  IC50: 0.185 µM
Du 145
  IC50: 21.7 µM
[6]
  efflux ratio at 2 h: 1.1
Caco-2 monolayers
  Caco-2 Permeability Class: High
Caco-2 monolayers; apical-to-basolateral, pH 7.4, 2 hours
  Caco-2 Permeability Papp A-B: 3.1
Caco-2 monolayers; basolateral-to-apical, pH 7.4, 2 hours
  Caco-2 Permeability Papp B-A: 3.3
[7]; 0.3 nM per CAM
  Blood Vessel Counts: 28.3 ± 1.7
[7]; 3 nM per CAM
  Blood Vessel Counts: 27.3 ± 2.4
[7]; 30 nM per CAM
  Blood Vessel Counts: 26.7 ± 1.9
LOX-IMV1 tumor cell line
  Inhibition of cell migration: significant inhibition of migration
[8]; aqueous with cosolvent or surfactant or cyclodextrin, Ethanol/Tween 80
  solubility: 10000 µg/mL (≈ 30.8 mM)
[8]; oil or lipid, Corn oil
  solubility: < 6000 µg/mL
[8]; organic solvent or mixture, Ethanol
  solubility: 1400 µg/mL (≈ 4.31 mM)
[8]; organic solvent or mixture, PEG-300
  solubility: 13300 µg/mL (≈ 40.9 mM)
[8]; organic solvent or mixture, Propane-diol
  solubility: 2700 µg/mL (≈ 8.3 mM)

## C[C@]12CC[C@H]3[C@@H](CCC4=CC(=O)CC[C@@]43C)[C@@H]1CC[C@@H]2O [Testosterone, reference compound]
[9]
  Metabolic Stability in Human Microsomes % Remaining: 56%
[5]; 0 min, 37° C., 1 mM NADPH
  Metabolic Stability in Human Microsomes % Remaining: 100%
